Results: patent publication US12594278B2, “Method for treatment of muscular dystrophy” (CHILDREN'S NATIONAL MEDICAL CENTER, priority 2019, dated 2026)

How the values were obtained:
[1] = tested on: FAP; settings: stated without data; cited from earlier work
[2] = tested on: A2-B6A/J mice; assay: Notexin injury of A2-B6A/J TA muscle with or without recombinant AnxA2; assay type: in vivo, mouse; settings: 10 μg AnxA2 at injury site, 28 d after injury, vs notexin alone
Method: To test if this was also true in vivo, the AnxA2-naïve A2-B6A/J mice were used for receiving notexin to injure their muscle with or without the addition of 10 μg purified AnxA2 at the site of injury. […] This provides direct evidence supporting that extracellular AnxA2 is not only necessary, but also sufficient for driving FAP-mediated in vivo adipogenic conversion of the regenerating dysferlinopathic muscles.
Microscopy and Image Analysis. Microscopy was performed using an Olympus BX61 VS120-S5 Virtual Slide Scanning System with UPlanSApo 40×/0.95 objective, Olympus XM10 monochrome camera or Allied vision Pike F-505C color camera, and Olympus VS-ASW FL 2.7 imaging software. […] Perilipin-1 quantification was performed by thresholding the image to exclude non-specific staining and then calculating the area of each lipid deposit encircled by perlipin-1 (excluding those in the epi- or perimysium) using MetaMorph software (Molecular Devices). The total area encircled by perilipin-1 was calculated for all lipid deposits across the muscle and expressed relative to the total cross-sectional area. PDGFRα and AnxA2 positive area was calculated using CellSens software (Olympus) by thresholding to remove non-specific staining and calculating the total positive area (again, excluding any epi- or perimysial staining) relative to the entire muscle cross-section. […]

[3] = tested on: B6A/J FAPs; assay: Spontaneous adipogenesis of purified B6A/J FAPs treated with recombinant AnxA2 (Oil Red O); assay type: cell-based, mouse; settings: 100 nM AnxA2 from day 3; 24Mo B6A/J FAPs; vs AnxA2 untreated FAPs
Source text: The contribution of AnxA2 to the adipogenic fate of the FAPs was next examined in dysferlin-deficient muscle. For this FAPs were isolated from 12Mo WT, B6A/J and A2-B6A/J muscle and their spontaneous adipogenesis in vitro was quantified. […] The spontaneous adipogenesis of B6A/J FAPs indicates these cells are committed to adipogenesis prior to extraction, which can be caused by the pro-adipogenic niche in dysferlinopathic muscle. The lack of spontaneous adipogenesis in A2-B6A/J FAPs can be caused by the lack of a pro-adipogenic niche or restricted adipogenic potential of the FAPs in the absence of AnxA2 (FIG. 8). As adipogenic replacement of muscle is enhanced with age, the niche (PDGFRα^−) and FAP (PDGFRα^+) cells from 24Mo B6A/J and A2-B6A/J muscles were isolated to allow for the niche cells to reach their maximal potential. These FAP and niche cells were then mixed in a 1:1 ratio (20,000 cells total; 10,000 FAPs) from the same or different genetic background and their spontaneous adipogenesis was quantified as the extent of oil red staining/20,000 FAPs. […] To directly test if it is the AnxA2 or another factor secreted by the niche cells that influences FAP adipogenesis, a purified population of B6A/J FAPs ([…]) were treated with 100 nM AnxA2 and their spontaneous adipogenesis was quantified as the extent of oil red staining/20,000 FAPs. […]

Molecule	FAP adipogenesis [1]	accumulation of PDGFRα FAPs in TA after notexin injury [2]	perilipin-1 labeled adipogenic deposits in TA after notexin injury [2]	increase in spontaneous adipogenic differentiation of dysferlinopathic FAPs (oil red staining/20,000 FAPs) [3]
CC(CN1c2ccccc2Sc2ccccc21)N(C)C (stereo not shown) [promethazine]	inhibits FAP adipogenesis			
AnxA2: recombinant AnxA2 (RayBiotech, #230-30023), membrane repair protein Annexin A2		increased accumulation	increased accumulation	> 2 fold
